Patent US5331090A, “CR2 ligand compositions and methods for modulating immune cell functions” (California Institute of Biological Research, priority 1989, dated 1994)
No end group written: not given here.

Molecular target: T1, CR2 receptor on Raji cells (Homo sapiens, UniProt P20023)
T1 construct: endogenous in cells; host or cells: Raji cells (human B lymphoblastoid, ATCC CCL 86)
T1 sequence (P20023 21-1033): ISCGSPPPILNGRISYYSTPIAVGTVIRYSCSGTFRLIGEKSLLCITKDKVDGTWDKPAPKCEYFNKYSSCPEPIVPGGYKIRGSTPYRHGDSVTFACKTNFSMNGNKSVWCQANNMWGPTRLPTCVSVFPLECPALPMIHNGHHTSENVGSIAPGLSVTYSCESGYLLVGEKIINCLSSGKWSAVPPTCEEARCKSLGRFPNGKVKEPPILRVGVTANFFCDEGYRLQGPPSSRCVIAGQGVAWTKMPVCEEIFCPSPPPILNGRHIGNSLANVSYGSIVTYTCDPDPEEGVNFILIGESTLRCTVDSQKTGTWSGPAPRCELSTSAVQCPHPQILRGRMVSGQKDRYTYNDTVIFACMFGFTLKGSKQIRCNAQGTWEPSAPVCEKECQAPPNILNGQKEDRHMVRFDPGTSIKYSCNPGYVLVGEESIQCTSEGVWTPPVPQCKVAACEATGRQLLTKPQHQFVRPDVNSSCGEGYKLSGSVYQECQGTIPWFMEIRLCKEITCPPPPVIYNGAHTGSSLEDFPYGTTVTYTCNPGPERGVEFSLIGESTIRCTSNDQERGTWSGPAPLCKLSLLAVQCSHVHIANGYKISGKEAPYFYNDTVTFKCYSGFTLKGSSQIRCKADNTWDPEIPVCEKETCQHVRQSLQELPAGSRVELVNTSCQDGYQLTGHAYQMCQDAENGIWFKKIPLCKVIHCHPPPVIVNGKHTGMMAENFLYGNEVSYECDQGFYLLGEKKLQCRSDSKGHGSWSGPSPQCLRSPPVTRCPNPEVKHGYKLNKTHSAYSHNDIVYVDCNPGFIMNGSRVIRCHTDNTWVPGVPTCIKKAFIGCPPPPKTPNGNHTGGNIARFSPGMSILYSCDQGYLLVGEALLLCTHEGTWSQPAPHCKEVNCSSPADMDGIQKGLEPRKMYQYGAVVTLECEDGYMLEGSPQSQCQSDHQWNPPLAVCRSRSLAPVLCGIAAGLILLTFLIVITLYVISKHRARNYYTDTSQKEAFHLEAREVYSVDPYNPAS
Experiment: Inhibition of direct binding of C3-coated Zymosan to cells (rosette count)
Settings: polypeptide zero to 200 ug in 100 ul, 37 C 30 min, amount behind the value not stated
Description: Fresh blood from a healthy donor was collected and maintained at room temperature for 2 hours. Then the blood was centrifuged at 2000 x g for about 10 min and the resulting supernatant was collected. Five mg of Zymosan A particles (Sigma Chemical Co., St. Louis, Mo.) were boiled for 30 min in 20 ml of 150 mM NaCl and washed three times in phosphate-buffered saline (PBS) to form activated Zymosan. One mg of activated Zymosan particles was admixed with 0.5 ml of blood supernatant and maintained at 37 C. for 30 min, and then was washed 3 times in PBS. The washed particles were then resuspended in PBS at a concentration of 0.5 mg/ml to form a C3 -coated Zymosan composition.
Cultures containing 10^5 Raji or HSB2 cells were admixed with varying amounts (zero to 200 ug) of the polypeptides shown in Table 2 in a volume of 100 microliters (ul) of culture medium and the admixture was maintained at 37C for 30 min to allow CR2 ligand polypeptides to bind any CR2 receptor present on the cells. Thereafter, 50 ul of C3 -coated Zymosan composition was added to each culture, the cultures were subjected to centrifugation for 1 min at 600×g and then maintained at 37 C. for 30 min. The maintained cultures were then washed with prewarmed culture medium to rinse off non-bound particles. Washed cultures were observed using a microscope to detect and count the number of particles (rosettes) attached per cell. More than 3 rosettes per cell was counted as C3 specific binding. Inhibition is expressed as the percent decrease in bound rosettes when comparing binding in the presence or absence of admixed polypeptide.

| Substance | Inhibition of direct binding of C3-coated Zymosan to cells (percent decrease in bound rosettes) |
| --- | --- |
| SRRGDMS [SRRGDMS] | 0% |
| NSGVEA [NSGVEA] | 35% |
| LYNVEAT [LYNVEAT] | 70% |
